Assay results as given in publication PMC6718736, “Validation of in vitro methods for human cytochrome P450 enzyme induction: Outcome of a multi-laboratory study” (Toxicology in Vitro, 2019).
“Also recorded” adds a separate entry of the source. Where two headings read alike, the source gives them in different places.

Assays:
CYP1A2 [1] = assay: CYP1A2 enzyme induction assay in cryopreserved HepaRG cells (phenacetin probe, LC/MS); assay type: in vitro ADME, human; conditions: for Assigned classification CYP1A2: HepaRG; for Assigned classification CYP1A2: key: 1=Positive=inducer; 0=Negative=non-inducer
CYP = CYP isoforms induced; ref Abadie et al. (2009), Richert et al. (2010), Preissner et al. (2010), Hoffmann et al. (2014); cited from earlier work
CYP2B6 [2] = assay: CYP2B6 enzyme induction assay in cryopreserved HepaRG cells (bupropion probe, LC/MS); assay type: in vitro ADME, human; conditions: for Prediction in vivo inducer: Cmax/F2 >0.5 criterion; for Assigned classification CYP2B6: HepaRG; for Assigned classification CYP2B6: key: 1=Positive=inducer; 0=Negative=non-inducer
CYP2B6 [3] = assay: CYP2B6 enzyme induction assay in cryopreserved primary human hepatocytes (PHH); assay type: in vitro ADME; conditions: for Assigned classification CYP2B6: PHH;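 for Assigned classification CYP2B6: code 1 means positive inducer and 0 means non-inducer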
CYP3A4 [4] = assay: CYP3A4 enzyme induction assay in cryopreserved HepaRG cells (midazolam probe, LC/MS); assay type: in vitro ADME, human; conditions: for Assigned classification CYP3A4: HepaRG; for Assigned classification CYP3A4: key: 1=Positive=inducer; 0=Negative=non-inducer
CYP3A4 [5] = assay: CYP3A4 enzyme induction assay in cryopreserved primary human hepatocytes (PHH); conditions: for Assigned classification CYP3A4: PHH
CYP2B6 [6] = conditions: cited from earlier work
CYP1A2 [7] = conditions: cited from earlier work
CYP3A4 [8] = conditions: cited from earlier work
CYP1A2 [9] = assay: CYP1A2 enzyme induction assay in cryopreserved primary human hepatocytes (PHH); assay type: in vitro ADME; conditions: for Prediction in vivo inducer: Cmax/F2 >0.5 criterion; for Assigned classification CYP1A2: PHH;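 for Assigned classification CYP1A2: code 1 means positive inducer and 0 means non-inducer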
[10] = cited from earlier work
[11] = human in vivo, CYP named without remark = induced, ref references in the cell, Washington University database, Hoffmann et al. (2014), Pelkonen et al. (2008), Hukkanen et al. (2012)

Prediction in vivo inducer (CYP1A2 [1]; CYP1A2, HepaRG cells, Cmax/F2 >0.5 criterion): Yes
F2 (CYP1A2 [1]; CYP1A2, HepaRG cells, in vitro concentration producing 2-fold induction): 56.4 µM
Induction in vitro (CYP1A2 [1]; CYP1A2, HepaRG cells, positive in one batch in each of the three laboratories): Yes
Assigned classification CYP1A2 (CYP1A2 [1]; Lab 1, batch 20): 1
Assigned classification CYP1A2 (CYP1A2 [1]; Lab 1, batch 35): 1
Assigned classification CYP1A2 (CYP1A2 [1]; Lab 1, batch 36): 1
Assigned classification CYP1A2 (CYP1A2 [1]; Lab 2, batch 20): 1
Assigned classification CYP1A2 (CYP1A2 [1]; Lab 2, batch 35): 1
Assigned classification CYP1A2 (CYP1A2 [1]; Lab 2, batch 36): 1
Assigned classification CYP1A2 (CYP1A2 [1]; Lab 3, batch 20): 0
Assigned classification CYP1A2 (CYP1A2 [1]; Lab 3, batch 35): 1
Assigned classification CYP1A2 (CYP1A2 [1]; Lab 3, batch 36): 1
Prediction in vivo inducer (CYP2B6 [2]; CYP2B6, HepaRG cells): Yes
Prediction in vivo inducer (CYP2B6 [2]; CYP2B6, HepaRG cells, listed as carbamazepine): correctly classified
F2 (CYP2B6 [2]; CYP2B6, HepaRG cells, in vitro concentration producing 2-fold induction): 18.8 µM
Induction in vitro (CYP2B6 [2]; CYP2B6, HepaRG cells, positive in one batch in each of the three laboratories): Yes
Assigned classification CYP2B6 (CYP2B6 [2]; Lab 1, batch 20): 1
Assigned classification CYP2B6 (CYP2B6 [2]; Lab 1, batch 35): 1
Assigned classification CYP2B6 (CYP2B6 [2]; Lab 1, batch 36): 1
Assigned classification CYP2B6 (CYP2B6 [2]; Lab 2, batch 20): 1
Assigned classification CYP2B6 (CYP2B6 [2]; Lab 2, batch 35): 1
Assigned classification CYP2B6 (CYP2B6 [2]; Lab 2, batch 36): 1
Assigned classification CYP2B6 (CYP2B6 [2]; Lab 3, batch 20): 1
Assigned classification CYP2B6 (CYP2B6 [2]; Lab 3, batch 35): 1
Assigned classification CYP2B6 (CYP2B6 [2]; Lab 3, batch 36): 1
F2 (CYP2B6 [3]; CYP2B6, PHH): 2.09 to 6.27 µM
Induction in vitro (CYP2B6 [3]; CYP2B6, PHH): Yes
Prediction in vivo inducer (CYP2B6 [3]; CYP2B6, PHH): Yes
Prediction in vivo inducer (CYP2B6 [3]; CYP2B6, PHH, Cmax/F2 >0.5 criterion): positive
Assigned classification CYP2B6 (CYP2B6 [3]; Lab 1, batch 0 6 A): 1
Assigned classification CYP2B6 (CYP2B6 [3]; Lab 1, batch 4 0 8): 1
Assigned classification CYP2B6 (CYP2B6 [3]; Lab 1, batch 8 0 8): 0
Assigned classification CYP2B6 (CYP2B6 [3]; Lab 2, batch 0 6 A): 1
Assigned classification CYP2B6 (CYP2B6 [3]; Lab 2, batch 4 0 8): 1
Assigned classification CYP2B6 (CYP2B6 [3]; Lab 2, batch 8 0 8): 0
Assigned classification CYP2B6 (CYP2B6 [3]; Lab 3, batch 0 6 A): 1
Assigned classification CYP2B6 (CYP2B6 [3]; Lab 3, batch 4 0 8): 1
Assigned classification CYP2B6 (CYP2B6 [3]; Lab 3, batch 8 0 8): 0
F2 (CYP3A4 [4]; CYP3A4, HepaRG cells): 18.8 µM
Induction in vitro (CYP3A4 [4]; CYP3A4, HepaRG cells): Yes
Prediction in vivo inducer (CYP3A4 [4]; CYP3A4, HepaRG cells): Yes
Assigned classification CYP3A4 (CYP3A4 [4]; Lab 1, batch 20): 1
Assigned classification CYP3A4 (CYP3A4 [4]; Lab 1, batch 35): 1
Assigned classification CYP3A4 (CYP3A4 [4]; Lab 1, batch 36): 0
Assigned classification CYP3A4 (CYP3A4 [4]; Lab 2, batch 20): 1
Assigned classification CYP3A4 (CYP3A4 [4]; Lab 2, batch 35): 1
Assigned classification CYP3A4 (CYP3A4 [4]; Lab 2, batch 36): 1
Assigned classification CYP3A4 (CYP3A4 [4]; Lab 3, batch 20): 1
Assigned classification CYP3A4 (CYP3A4 [4]; Lab 3, batch 35): 1
Assigned classification CYP3A4 (CYP3A4 [4]; Lab 3, batch 36): 1
Induction in vitro (CYP3A4 [5]; CYP3A4, PHH): Yes
Prediction in vivo inducer (CYP3A4 [5]; CYP3A4, PHH): Yes
Assigned classification CYP3A4 (CYP3A4 [5]; Lab 1, batch 0 6 A): 1
Assigned classification CYP3A4 (CYP3A4 [5]; Lab 1, batch 4 0 8): 1
Assigned classification CYP3A4 (CYP3A4 [5]; Lab 1, batch 8 0 8): 1
Assigned classification CYP3A4 (CYP3A4 [5]; Lab 2, batch 0 6 A): 1
Assigned classification CYP3A4 (CYP3A4 [5]; Lab 2, batch 4 0 8): 1
Assigned classification CYP3A4 (CYP3A4 [5]; Lab 2, batch 8 0 8): 1
Assigned classification CYP3A4 (CYP3A4 [5]; Lab 3, batch 0 6 A): 1
Assigned classification CYP3A4 (CYP3A4 [5]; Lab 3, batch 4 0 8): 1
Assigned classification CYP3A4 (CYP3A4 [5]; Lab 3, batch 8 0 8): 1
Prediction in vivo inducer (CYP1A2 [9]; CYP1A2, PHH): No
Induction in vitro (CYP1A2 [9]; CYP1A2, PHH, positive in one donor in each of the three laboratories): No
Assigned classification CYP1A2 (CYP1A2 [9]; Lab 1, batch 0 6 A): 0
Assigned classification CYP1A2 (CYP1A2 [9]; Lab 1, batch 4 0 8): 1
Assigned classification CYP1A2 (CYP1A2 [9]; Lab 1, batch 8 0 8): 0
Assigned classification CYP1A2 (CYP1A2 [9]; Lab 2, batch 0 6 A): 0
Assigned classification CYP1A2 (CYP1A2 [9]; Lab 2, batch 4 0 8): 0
Assigned classification CYP1A2 (CYP1A2 [9]; Lab 2, batch 8 0 8): 0
Assigned classification CYP1A2 (CYP1A2 [9]; Lab 3, batch 0 6 A): 1
Assigned classification CYP1A2 (CYP1A2 [9]; Lab 3, batch 4 0 8): 0
Assigned classification CYP1A2 (CYP1A2 [9]; Lab 3, batch 8 0 8): 0
Structure (SMILES): NC(=O)N1c2ccccc2C=Cc2ccccc21 [Carbamazepine]
CYP induction in vitro (human hepatocytes) (CYP): CYP1A2, CYP2B6, CYP3A4
Induction in vivo (CYP2B6 [6]; CYP2B6, human in vivo reference classification): Yes
Induction in vivo (CYP2B6 [6]; CYP2B6, human, ref Table 1): Yes
CYP induction in vivo literature reference: CYP2B6 (CYP2B6 [6]; [11]): CYP2B6
Induction in vivo (CYP1A2 [7]; CYP1A2, human, ref Table 1): Yes
CYP induction in vivo literature reference: CYP1A2 (CYP1A2 [7]; [11]): CYP 1A2
Induction in vivo (CYP3A4 [8]; CYP3A4, human in vivo reference classification (Table 11)): Yes
CYP induction in vivo literature reference: CYP3A4 (CYP3A4 [8]; [11]): CYP 3A4
Prediction in vivo inducer (CYP1A2 [9]; CYP1A2, PHH, listed as carbamazepine): non-inducer; also recorded: missed the in vivo prediction
Cmax ([10]; human in vivo plasma concentration, normal dose): 39 µM
Cmax ([10]; human in vivo, normal dose (Table 10)): 39 µM
